# Measured values from paper PMC4383725 (Cell reports, 2015).
# Target: T1, oxysterol-binding protein (OSBP) (Homo sapiens, UniProt P22059)
# T1 sequence (P22059 2-807): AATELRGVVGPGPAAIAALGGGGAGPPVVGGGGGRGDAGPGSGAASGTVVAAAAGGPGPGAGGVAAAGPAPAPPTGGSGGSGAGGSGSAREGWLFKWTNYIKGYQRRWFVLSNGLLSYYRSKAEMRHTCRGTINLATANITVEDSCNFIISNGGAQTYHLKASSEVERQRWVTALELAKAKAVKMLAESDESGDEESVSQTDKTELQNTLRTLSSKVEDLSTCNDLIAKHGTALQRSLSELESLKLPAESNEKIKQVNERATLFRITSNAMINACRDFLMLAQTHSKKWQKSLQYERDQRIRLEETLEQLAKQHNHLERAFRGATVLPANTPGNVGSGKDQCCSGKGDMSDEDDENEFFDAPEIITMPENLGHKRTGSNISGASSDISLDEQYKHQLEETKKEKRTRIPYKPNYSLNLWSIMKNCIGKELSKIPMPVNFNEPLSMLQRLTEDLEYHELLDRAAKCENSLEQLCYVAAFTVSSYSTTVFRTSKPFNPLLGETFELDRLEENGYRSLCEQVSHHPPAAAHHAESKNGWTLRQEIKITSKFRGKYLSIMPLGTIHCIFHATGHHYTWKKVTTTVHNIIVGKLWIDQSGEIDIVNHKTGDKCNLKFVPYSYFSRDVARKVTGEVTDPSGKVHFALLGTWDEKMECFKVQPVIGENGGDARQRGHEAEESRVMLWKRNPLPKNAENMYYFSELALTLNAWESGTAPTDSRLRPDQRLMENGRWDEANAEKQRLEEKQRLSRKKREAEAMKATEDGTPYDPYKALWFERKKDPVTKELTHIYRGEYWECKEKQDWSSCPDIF
# Assay: MicroScale Thermophoresis with purified GFP-OSBP
compound,measurement,value
"CCC(C)n1ncn(-c2ccc(N3CCN(c4ccc(OCC5COC(Cn6cncn6)(c6ccc(Cl)cc6Cl)O5)cc4)CC3)cc2)c1=O (stereo not shown) [ITZ, itraconazole]",Kd,~430 nM
